Patent publication US20070049564A1 (Wyeth, priority 2005, published 2007)
Converted amounts (≈) assume the structure as drawn. Where two headings read alike, the source gives them in different places.

How the values were obtained:
[1] = tested on: c. albicans GC 3066; assay: MIC, broth microdilution
[2] = tested on: S. pneumoniae+ GC 4465; assay: MIC, broth microdilution; conditions: Streptococcus pneumoniae, S. pneumoniae+ GC 4465
[3] = tested on: S. aureus GC 2216; assay: MIC, broth microdilution; conditions: Staphylococcus aureus, GC2216, S. aureus GC 2216
[4] = tested on: S. typhimurium GC 2172; assay: MIC, broth microdilution; conditions: Salmonella enterica, TYPHIMURIUM, S. typhimurium GC 2172
[5] = tested on: S. aureus GC 1131; assay: MIC, broth microdilution; conditions: Staphylococcus aureus, GC1131, S. aureus GC 1131
[6] = tested on: Staph. aureus Smith; assay: In vivo activity (oral, iv; ED50) against Staph. aureus Smith in mice
Description: Representative examples of compounds of Formula I were tested for the oral efficacy using S. aureus Smith in mice.

[7] = tested on: E. faecalis GC 2267; assay: MIC, broth microdilution; conditions: Enterococcus faecalis, GC2267, E. faecalis GC 2267
[8] = tested on: E. coli GC 2231; assay: MIC, broth microdilution; conditions: Escherichia coli, GC2231, E. coli GC 2231
[9] = tested on: E. faecium GC 2243; assay: MIC, broth microdilution; conditions: Enterococcus faecium, GC2243, E. faecium GC 2243
[10] = tested on: E. coli GC 3226; assay: MIC, broth microdilution; conditions: Escherichia coli, GC3226, E. coli GC 3226
[11] = tested on: E. faecium GC 4556; assay: MIC, broth microdilution; conditions: Enterococcus faecium, GC4556, E. faecium GC 4556
[12] = tested on: S. pneumoniae* GC 4465; assay: MIC, broth microdilution; conditions: Streptococcus pneumoniae, S. pneumoniae* GC 4465
[13] = tested on: E. coli GC 2272; assay: MIC, broth microdilution; conditions: Escherichia coli, GC2272, E. coli GC 2272
[14] = tested on: E. coli GC 2234; assay: MIC, broth microdilution; conditions: Escherichia coli, GC2234, E. coli GC 2234
Description: Antimicrobial susceptibility testing. The in vitro activities of the antibiotics are determined by the broth microdilution method as recommended by the National Committee for Clinical Laboratory Standards (NCCLS) (1). Mueller-Hinton II broth (MHBII)(BBL Cockeysville, Md.) is the medium employed in the testing procedures. Microtiter plates containing serial dilutions of each antimicrobial agent are inoculated with each organism to yield the appropriate density (10^5 CFU/ml) in a 100 μl final volume. The plates are incubated for 18-22 hours at 35° C. in ambient air.
Representative compounds were first incubated in mouse serum for an hour prior to the in vitro testing against a panel of selected gram-positive and gram-negative bacteria strains. All compounds were also pre-incubated in water for an hour prior to testing as control.

[15] = tested on: S. aureus GC 6466; assay: MIC, broth microdilution; conditions: Staphylococcus aureus, GC6466, S. aureus GC 6466
[16] = tested on: S. aureus GC 6335; assay: MIC, broth microdilution; conditions: Staphylococcus aureus, GC6335, S. aureus GC 6335
[17] = tested on: S. pyogenes GC 4563; assay: MIC, broth microdilution; conditions: Streptococcus pyogenes, GC4563, S. pyogenes GC 4563
[18] = tested on: E. coli GC 2232; assay: MIC, broth microdilution; conditions: Escherichia coli, GC2232, E. coli GC 2232
[19] = tested on: S. aureus GC 1079; assay: MIC, broth microdilution; conditions: Staphylococcus aureus, GC1079, S. aureus GC 1079
[20] = tested on: S. epidermidis GC 4935; assay: MIC, broth microdilution; conditions: Staphylococcus epidermidis, GC4935, S. epidermidis GC 4935
[21] = c. albicans GC 3066, Water pre-incubation
[22] = Staphylococcus aureus, in Mus musculus, po, read-out: ED50 Staph Smith SOD
[23] = iv, read-out: ED50 Staph Smith SIV

SMILES | MIC ([1]; Candida albicans, GC3066) | MIC [1, 21] | MIC ([2]; Mouse Serum pre-incubation) | MIC ([2]; Water pre-incubation) | MIC ([3]; Mouse Serum pre-incubation) | MIC ([3]; Water pre-incubation) | MIC ([4]; Mouse Serum pre-incubation) | MIC ([4]; Water pre-incubation) | MIC ([5]; Mouse Serum pre-incubation) | MIC ([5]; Water pre-incubation) | ED50 [6, 22] | ED50 [6, 23] | MIC ([7]; Mouse Serum pre-incubation) | MIC ([7]; Water pre-incubation) | MIC ([8]; Mouse Serum pre-incubation) | MIC ([8]; Water pre-incubation) | MIC ([9]; Mouse Serum pre-incubation) | MIC ([9]; Water pre-incubation) | MIC ([10]; Mouse Serum pre-incubation) | MIC ([10]; Water pre-incubation) | also measured
CCCCN(CC(=O)Nc1cc(N(C)C)c2c(c1O)C(=O)C1=C(O)[C@]3(O)C(=O)C(C(N)=O)=C(O)[C@@H](N(C)C)[C@@H]3C[C@@H]1C2)C(=O)OCOC(=O)C(C)(C)C [Example 13, ({[(2-{[(5aR,6aS,7S,10aS)-9-(aminocarbonyl)-4,7-bis(dimethylamino)-1,8,10a,11-tetrahydroxy-10,12-dioxo-5,5a,6,6a,7,10,10a,12-octahydrotetracen-2-yl]amino}-2-oxoethyl)(butyl)amino]carbonyl}oxy)methyl pivalate] | > 64 µg/mL | >64 UG/ML | 8 µg/mL (≈ 10.8 µM) | 8 µg/mL (≈ 10.8 µM) | 2 µg/mL (≈ 2.69 µM) | 4 µg/mL (≈ 5.38 µM) | 8 µg/mL (≈ 10.8 µM) | 64 µg/mL (≈ 86 µM) | 2 µg/mL (≈ 2.69 µM) | 2 µg/mL (≈ 2.69 µM) | 11 mg/kg | 0.82 mg/kg | 4 µg/mL (≈ 5.38 µM) | 8 µg/mL (≈ 10.8 µM) | 2 µg/mL (≈ 2.69 µM) | 16 µg/mL (≈ 21.5 µM) | 2 µg/mL (≈ 2.69 µM) | 4 µg/mL (≈ 5.38 µM) | 2 µg/mL (≈ 2.69 µM) | 16 µg/mL (≈ 21.5 µM) | MIC ([11]; Mouse Serum pre-incubation): 2 µg/mL (≈ 2.69 µM); MIC ([11]; Water pre-incubation): 8 µg/mL (≈ 10.8 µM); MIC ([12]; Mouse Serum pre-incubation): 0.5 µg/mL (≈ 0.672 µM); MIC ([12]; Water pre-incubation): 0.5 µg/mL (≈ 0.672 µM); MIC ([13]; Mouse Serum pre-incubation): 2 µg/mL (≈ 2.69 µM); MIC ([13]; Water pre-incubation): 8 µg/mL (≈ 10.8 µM); MIC ([14]; Mouse Serum pre-incubation): 1 µg/mL (≈ 1.34 µM); MIC ([14]; Water pre-incubation): 8 µg/mL (≈ 10.8 µM); MIC ([15]; Mouse Serum pre-incubation): 1 µg/mL (≈ 1.34 µM); MIC ([15]; Water pre-incubation): 2 µg/mL (≈ 2.69 µM); MIC ([16]; Mouse Serum pre-incubation): 2 µg/mL (≈ 2.69 µM); MIC ([16]; Water pre-incubation): 4 µg/mL (≈ 5.38 µM); MIC ([17]; Mouse Serum pre-incubation): 0.5 µg/mL (≈ 0.672 µM); MIC ([17]; Water pre-incubation): 1 µg/mL (≈ 1.34 µM); MIC ([18]; Mouse Serum pre-incubation): 2 µg/mL (≈ 2.69 µM); MIC ([18]; Water pre-incubation): 8 µg/mL (≈ 10.8 µM); MIC ([19]; Mouse Serum pre-incubation): 4 µg/mL (≈ 5.38 µM); MIC ([19]; Water pre-incubation): 4 µg/mL (≈ 5.38 µM); MIC ([20]; Mouse Serum pre-incubation): 4 µg/mL (≈ 5.38 µM); MIC ([20]; Water pre-incubation): 8 µg/mL (≈ 10.8 µM)
CCCN(CC(=O)Nc1cc(N(C)C)c2c(c1O)C(=O)C1=C(O)[C@]3(O)C(=O)C(C(N)=O)=C(O)[C@@H](N(C)C)[C@@H]3C[C@@H]1C2)C(=O)OCc1ccccc1 [Example 14, benzyl 2-{[(5aR,6aS,7S,10aS)-9-(aminocarbonyl)-4,7-bis(dimethylamino)-1,8,10a,11-tetrahydroxy-10,12-dioxo-5,5a,6,6a,7,10,10a,12-octahydrotetracen-2-yl]amino}-2-oxoethyl(propyl)carbamate] | > 64 µg/mL | >64 UG/ML | 4 µg/mL (≈ 5.67 µM) | 4 µg/mL (≈ 5.67 µM) | 2 µg/mL (≈ 2.83 µM) | 4 µg/mL (≈ 5.67 µM) | > 64 µg/mL | > 64 µg/mL | 1 µg/mL (≈ 1.42 µM) | 2 µg/mL (≈ 2.83 µM) | > 32 mg/kg | > 2 mg/kg | 2 µg/mL (≈ 2.83 µM) | 8 µg/mL (≈ 11.3 µM) | > 64 µg/mL | > 64 µg/mL | 2 µg/mL (≈ 2.83 µM) | 4 µg/mL (≈ 5.67 µM) | > 64 µg/mL | > 64 µg/mL | MIC ([11]; Mouse Serum pre-incubation): 4 µg/mL (≈ 5.67 µM); MIC ([11]; Water pre-incubation): 8 µg/mL (≈ 11.3 µM); MIC ([12]; Mouse Serum pre-incubation): 2 µg/mL (≈ 2.83 µM); MIC ([12]; Water pre-incubation): 4 µg/mL (≈ 5.67 µM); MIC ([13]; Mouse Serum pre-incubation): > 64 µg/mL; MIC ([13]; Water pre-incubation): > 64 µg/mL; MIC ([14]; Mouse Serum pre-incubation): > 64 µg/mL; MIC ([14]; Water pre-incubation): > 64 µg/mL; MIC ([15]; Mouse Serum pre-incubation): 2 µg/mL (≈ 2.83 µM); MIC ([15]; Water pre-incubation): 8 µg/mL (≈ 11.3 µM); MIC ([16]; Mouse Serum pre-incubation): 1 µg/mL (≈ 1.42 µM); MIC ([16]; Water pre-incubation): 4 µg/mL (≈ 5.67 µM); MIC ([17]; Mouse Serum pre-incubation): 2 µg/mL (≈ 2.83 µM); MIC ([17]; Water pre-incubation): 4 µg/mL (≈ 5.67 µM); MIC ([18]; Mouse Serum pre-incubation): > 64 µg/mL; MIC ([18]; Water pre-incubation): > 64 µg/mL; MIC ([19]; Mouse Serum pre-incubation): 1 µg/mL (≈ 1.42 µM); MIC ([19]; Water pre-incubation): 2 µg/mL (≈ 2.83 µM); MIC ([20]; Mouse Serum pre-incubation): 8 µg/mL (≈ 11.3 µM); MIC ([20]; Water pre-incubation): 8 µg/mL (≈ 11.3 µM)
